From patent US11878973B2, “Bicyclic compounds and their uses” (NOVARTIS AG, priority 2021, dated 2024) come the findings set out here.

Where two headings read alike, the source gives them in different places. A value given as a limit tells only on which side of the number the result lay.

One experiment concerns DLD1-WRN-KO cells. The experiment can be described thus: Proliferation assay DLD1-WRN-KO (CellTiterGlo, 96 hours; off-target effects). As to conditions: read-out: Proliferation Assay DLD1-WRN-KO (GI50). (In general: ATP-based viability assays read luminescence as a measure of living cells.)
In the next experiment the target is WRN helicase (Homo sapiens (Human), UniProt Q14191). Description: In vitro enzymatic activity assay on WRN helicase (DNA dependent ATPase assay, ADP-Glo). Type of experiment: biochemical. As to conditions: geometric means of at least 2 determinations; read-out: WRN ATPase Activity (IC50). From the text:
An ATPase assay was set up to measure the DNA dependent ATP hydrolysis activity of WRN helicase. This assay was used also to assess the inhibition properties of compounds of the invention on DNA dependent WRN ATPase activity.
The core helicase motif of the WRN protein (aa N517-P1238) was produced for this assay (protein production as described above). […] The ADP-Glo assay kit (Promega, Madison, WI) allowing the quantification of ADP produced in ATP hydrolysis reactions was used for setting up this assay.
Time course experiments were first performed in order to determine the best enzymatic assay conditions (including buffer conditions, reaction time and concentrations of protein, ATP and DNA substrates). A typical reaction consists of 10 nM WRN protein, 0.2 nM FLAP26, and 300 micromolar ATP in the following assay buffer: 30 mM Tris pH7.5, 2 mM MgCl2, 0.02% BSA, 50 mM NaCl, 0.1% pluronic F127 prepared in DNAse free water. To evaluate the inhibition properties of compounds of the invention, serial dilutions were prepared in DMSO (10 half log dilutions from a 10 mM DMSO solution). […] The reaction was started by addition of 2.5 microliters of FLAP26 at 0.4 nM and incubated for 30 minutes at room temperature. The reaction was stopped with the addition of 5 microliters of the first ADP-Glo reagent and incubated for one hour to remove the excess amount of ATP. Afterwards, 10 microliters of ATP detection reagent was added and incubated for an additional hour before reading. Luminescence output was recorded using Tecan 1000 reader, with 5 minutes delay before reading. Each concentration of compound was tested in duplicates in the assay plate.
Following normalization of activity values for the wells to % inhibition (% inhibition=[(high control-sample)/(high control-low control)]×100), IC50 fitting was carried out from the duplicate determinations present on each plate according to [4]. Data analysis can also be carried out using commercially available software designed to derive IC50 values using 4-parameter fits (e.g. GraphPad Prism, XL fit). The reported IC50 values are the geometrical means of at least 2 independent replicates.
Background: In ADP-Glo the light output rises with the ADP produced.

A further experiment relates to SW48 cells. Description: Proliferation assay SW48 (CellTiterGlo, 96 hours).
Setting [1] is: Homo sapiens, SW48, read-out: Proliferation Assay SW48 (GI50).

Chain of WRN helicase (Q14191 517-1238): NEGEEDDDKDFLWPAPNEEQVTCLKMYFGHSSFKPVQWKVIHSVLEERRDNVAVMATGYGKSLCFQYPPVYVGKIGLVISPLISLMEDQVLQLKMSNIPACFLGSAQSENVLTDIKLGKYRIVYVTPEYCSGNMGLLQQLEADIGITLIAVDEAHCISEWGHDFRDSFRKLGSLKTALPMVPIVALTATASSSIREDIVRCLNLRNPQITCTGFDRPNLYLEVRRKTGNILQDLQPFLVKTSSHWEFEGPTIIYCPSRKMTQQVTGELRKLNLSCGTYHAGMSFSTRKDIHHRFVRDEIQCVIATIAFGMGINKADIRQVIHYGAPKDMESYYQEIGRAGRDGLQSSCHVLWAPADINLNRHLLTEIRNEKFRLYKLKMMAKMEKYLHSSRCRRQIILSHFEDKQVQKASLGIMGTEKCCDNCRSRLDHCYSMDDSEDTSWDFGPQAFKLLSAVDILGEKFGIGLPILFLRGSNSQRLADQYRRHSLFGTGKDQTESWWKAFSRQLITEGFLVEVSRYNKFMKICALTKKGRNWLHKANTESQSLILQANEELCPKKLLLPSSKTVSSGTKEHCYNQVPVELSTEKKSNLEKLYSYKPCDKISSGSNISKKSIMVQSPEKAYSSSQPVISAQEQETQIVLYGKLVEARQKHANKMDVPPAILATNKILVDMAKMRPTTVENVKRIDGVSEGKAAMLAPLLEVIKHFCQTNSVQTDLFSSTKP

For the molecule `CCc1c(N2CCN(C(=O)c3ncccc3O)CC2)c(=O)n2nc(N3CCCC(F)C3)nc2n1CC(=O)Nc1ccc(C(F)(F)F)cc1C` (racemic) [Example 14, rac-2-(5-ethyl-2-(3-fluoropiperidin-1-yl)-6-(4-(3-hydroxypicolinoyl)piperazin-1-yl)-7-oxo-[1,2,4]triazolo[1,5-a]pyrimidin-4(7H)-yl)-N-(2-methyl-4-(trifluoromethyl)phenyl)acetamide], the figures for the GI50 in the experiment on DLD1-WRN-KO cells (Homo sapiens) and in the experiment on SW48 cells (setting [1]) were more than 10 µM and 0.48 µM, respectively. The IC50 on WRN helicase was found to be 0.14 µM.

`CCc1c(N2CCN(C(=O)c3ncnc(C)c3O)[C@@H]3CC[C@H]32)c(=O)n2nc(C3=CCOCC3)nc2n1CC(=O)Nc1ccc(C(F)(F)F)cc1Cl` [Example 124, N-(2-chloro-4-(trifluoromethyl)phenyl)-2-(2-(3,6-dihydro-2H-pyran-4-yl)-5-ethyl-6-((1R,6R)-5-(5-hydroxy-6-methylpyrimidine-4-carbonyl)-2,5-diazabicyclo[4.2.0]octan-2-yl)-7-oxo-[1,2,4]triazolo[1,5-a]pyrimidin-4(7H)-yl)acetamide]: the GI50 in the experiment with DLD1-WRN-KO cells (Homo sapiens) was more than 10 µM; in the experiment with SW48 cells (setting [1]), 0.39 µM. Also, the concentration for half-maximal inhibition (IC50) on WRN helicase is 0.36 µM.

`CCc1c(N2CCN(C(=O)c3ncccc3O)CC2)c(=O)n2nc(C3=CNCCC3)nc2n1CC(=O)Nc1ccc(C(F)(F)F)cc1C` [Example 109, 2-(5-ethyl-6-(4-(3-hydroxypicolinoyl)piperazin-1-yl)-7-oxo-2-(1,4,5,6-tetrahydropyridin-3-yl)-[1,2,4]triazolo[1,5-a]pyrimidin-4(7H)-yl)-N-(2-methyl-4-(trifluoromethyl)phenyl)acetamide]: the figures for the GI50 with DLD1-WRN-KO cells (Homo sapiens) and in the experiment with SW48 cells (setting [1]) were more than 10 µM and 0.69 µM, respectively. Besides, the IC50 on WRN helicase was 1.18 µM.

Turning to `CCc1c(N2CCN(C(=O)c3nccc(Cl)c3O)CC2)c(=O)n2nc(C3=CCCCO3)nc2n1CC(=O)Nc1ccc(C(F)(F)F)nc1C` [Example 56, 2-(6-(4-(4-chloro-3-hydroxypicolinoyl)piperazin-1-yl)-2-(3,4-dihydro-2H-pyran-6-yl)-5-ethyl-7-oxo-[1,2,4]triazolo[1,5-a]pyrimidin-4(7H)-yl)-N-(2-methyl-6-(trifluoromethyl)pyridin-3-yl)acetamide], the GI50 in the experiment with DLD1-WRN-KO cells (Homo sapiens) was more than 10 µM; with SW48 cells (setting [1]), 0.25 µM. For the same molecule, the half-maximal inhibitory concentration (IC50) on WRN helicase was determined as 0.16 µM.

`O=C(Cn1c(C2CC2)c(N2CCN(C(=O)c3ncccc3O)CC2)c(=O)n2nc(C3=CCOCC3)nc12)Nc1ccc(C(F)(F)F)cc1` [Example 134, 2-(5-cyclopropyl-2-(3,6-dihydro-2H-pyran-4-yl)-6-(4-(3-hydroxypicolinoyl)piperazin-1-yl)-7-oxo-[1,2,4]triazolo[1,5-a]pyrimidin-4(7H)-yl)-N-(4-(trifluoromethyl)phenyl)acetamide]: the results for the GI50 in the experiment on DLD1-WRN-KO cells (Homo sapiens) and with SW48 cells (setting [1]) were more than 10 µM and 0.21 µM, respectively. Moreover, on WRN helicase, the concentration for half-maximal inhibition (IC50) came to 0.06 µM.

As to `CCc1c(N2CCN(C(=O)c3nccc(Cl)c3O)CC2)c(=O)n2nc(C3=CCOCC3)nc2n1CC(=O)Nc1ccc(C(F)(F)F)cc1Cl` [Example 39, 2-(6-(4-(4-chloro-3-hydroxypicolinoyl)piperazin-1-yl)-2-(3,6-dihydro-2H-pyran-4-yl)-5-ethyl-7-oxo-[1,2,4]triazolo[1,5-a]pyrimidin-4(7H)-yl)-N-(2-chloro-4-(trifluoromethyl)phenyl)acetamide], the GI50 was more than 10 µM in the experiment with DLD1-WRN-KO cells (Homo sapiens) and 0.05 µM in the experiment with SW48 cells (setting [1]). Besides, the IC50 at WRN helicase came to 0.04 µM.

On to `CCc1c(N2CCN(C(=O)c3ncnc(C)c3O)CC2)c(=O)n2nc(C3=CCOCC3)nc2n1CC(=O)Nc1cc(F)c(C=O)cc1C` [Example 54, 2-(2-(3,6-dihydro-2H-pyran-4-yl)-5-ethyl-6-(4-(5-hydroxy-6-methylpyrimidine-4-carbonyl)piperazin-1-yl)-7-oxo-[1,2,4]triazolo[1,5-a]pyrimidin-4(7H)-yl)-N-(5-fluoro-4-formyl-2-methylphenyl)acetamide], for which the GI50 in the experiment with DLD1-WRN-KO cells (Homo sapiens) was more than 10 µM; with SW48 cells (setting [1]) it was 6.01 µM. Further, the IC50 on WRN helicase is 1.3 µM.

Regarding `CCc1c(N2CCN(C(=O)c3ncccc3O)CC2)c(=O)n2nc(N3CCOCC3)nc2n1CC(=O)Nc1cc(F)c(C(F)(F)F)cc1C` [Example 5, 2-(5-ethyl-6-(4-(3-hydroxypicolinoyl)piperazin-1-yl)-2-morpholino-7-oxo-[1,2,4]triazolo[1,5-a]pyrimidin-4(7H)-yl)-N-(5-fluoro-2-methyl-4-(trifluoromethyl)phenyl)acetamide], the GI50 in the experiment on DLD1-WRN-KO cells (Homo sapiens) was more than 10 µM; in the experiment with SW48 cells (setting [1]) it was 0.12 µM. Besides, at WRN helicase, the half-maximal inhibitory concentration (IC50) is 0.09 µM.

For `CCc1c(N2CCN(C(=O)c3ncccc3O)CC2)c(=O)n2nc(C3=CCOCC3)nc2n1CC(=O)Nc1ccc(C(F)(F)F)nc1C` [Example 35, 2-(2-(3,6-dihydro-2H-pyran-4-yl)-5-ethyl-6-(4-(3-hydroxypicolinoyl)piperazin-1-yl)-7-oxo-[1,2,4]triazolo[1,5-a]pyrimidin-4(7H)-yl)-N-(2-methyl-6-(trifluoromethyl)pyridin-3-yl)acetamide], the values for the GI50 with DLD1-WRN-KO cells (Homo sapiens) and in the experiment on SW48 cells (setting [1]) were more than 10 µM and 0.4 µM, respectively. Further, at WRN helicase, the concentration for half-maximal inhibition (IC50) stood at 0.19 µM.

As to `CCc1c(N2CCN(C(=O)c3ncccc3O)CC2)c(=O)n2nc(C3=CC[C@H](OC)CC3)nc2n1CC(=O)Nc1ccc(C(F)(F)F)cc1` (single isomer, unassigned) [Example 81a, ((R)-2-(5-ethyl-6-(4-(3-hydroxypicolinoyl)piperazin-1-yl)-2-(4-methoxycyclohex-1-en-1-yl)-7-oxo-[1,2,4]triazolo[1,5-a]pyrimidin-4(7H)-yl)-N-(4-(trifluoromethyl)phenyl)acetamide or ((S)-2-(5-ethyl-6-(4-(3-hydroxypicolinoyl)piperazin-1-yl)-2-(4-methoxycyclohex-1-en-1-yl)-7-oxo-[1,2,4]triazolo[1,5-a]pyrimidin-4(7H)-yl)-N-(4-(trifluoromethyl)phenyl)acetamide], the GI50 in the experiment on DLD1-WRN-KO cells (DLD1-WRN-KO cell line, geometric means of at least 2 determinations) is more than 10 µM; with SW48 cells (read-out: Proliferation Assay SW48 (GI50), SW48 cell line, geometric means of at least 2 determinations), 0.07 µM. In addition, the half-maximal inhibitory concentration (IC50) on WRN helicase was found to be 0.04 µM.

For the molecule `Cc1c(N2CCN(C(=O)c3ncccc3O)CC2)c(=O)n2nc(C3=CCN(C(=O)OC(C)(C)C)CC3)nc2n1CC(=O)Nc1ccc(C(F)(F)F)cc1` [Example 126, tert-butyl 4-(6-(4-(3-hydroxypicolinoyl)piperazin-1-yl)-5-methyl-7-oxo-4-(2-oxo-2-((4-(trifluoromethyl)phenyl)amino)ethyl)-4,7-dihydro-[1,2,4]triazolo[1,5-a]pyrimidin-2-yl)-3,6-dihydropyridine-1(2H)-carboxylate], the IC50 at WRN helicase came out at 0.13 µM.

Consider `CCc1c(N2CCN(C(=O)c3ncnc(C)c3O)CC2)c(=O)n2nc(C3=CCOCC3)nc2n1CC(=O)Nc1ccc(C(F)(F)F)cc1Cl` [Example 42, N-(2-chloro-4-(trifluoromethyl)phenyl)-2-(2-(3,6-dihydro-2H-pyran-4-yl)-5-ethyl-6-(4-(5-hydroxy-6-methylpyrimidine-4-carbonyl)piperazin-1-yl)-7-oxo-[1,2,4]triazolo[1,5-a]pyrimidin-4(7H)-yl)acetamide], for which the GI50 in the experiment with SW48 cells (setting [1]) is 0.05 µM.

Take `[2H]C([2H])(C(=O)Nc1ccc(C(F)(F)F)cc1Cl)n1c(CC)c(N2CCN(C(=O)c3ncnc(C)c3O)CC2)c(=O)n2nc(C3=CCOCC3)nc12` [Example 43, N-(2-chloro-4-(trifluoromethyl)phenyl)-2-(2-(3,6-dihydro-2H-pyran-4-yl)-5-ethyl-6-(4-(5-hydroxy-6-methylpyrimidine-4-carbonyl)piperazin-1-yl)-7-oxo-[1,2,4]triazolo[1,5-a]pyrimidin-4(7H)-yl)acetamide-2,2-d2]: the GI50 in the experiment on SW48 cells (setting [1]) stood at 0.05 µM.

For `[2H]C1([2H])N(C(=O)c2ncnc(C)c2O)C([2H])([2H])C([2H])([2H])N(c2c(CC)n(CC(=O)Nc3ccc(C(F)(F)F)cc3Cl)c3nc(C4=CCOCC4)nn3c2=O)C1([2H])[2H]` [Example 133, N-(2-chloro-4-(trifluoromethyl)phenyl)-2-(2-(3,6-dihydro-2H-pyran-4-yl)-5-ethyl-6-(4-(5-hydroxy-6-methylpyrimidine-4-carbonyl)piperazin-1-yl-2,2,3,3,5,5,6,6-d8)-7-oxo-[1,2,4]triazolo[1,5-a]pyrimidin-4(7H)-yl)acetamide], in the experiment with SW48 cells (setting [1]), the GI50 came out at 0.06 µM.

What is called IC50 is the concentration at which inhibition is half-maximal.
